Converted amounts (≈) assume the structure as drawn. Where two headings read alike, the source gives them in different places.
Experiments:
[1] = system: MR coagulase negative staphylococci (MR-CoNS); assay: Reference agar dilution MIC, resistant SENTRY isolates; format: cell-based
Method: (§1) Utilizing existing interpretative criteria for the marketed oral agent (dosed at 3 g) for analysis purposes, FOS susceptibility (S) was determined for recent resistant GN and GP clinical isolates including vancomycin-resistant Enterococcus faecium (VREM) and E. faecalis (VREF); methicillin-resistant Staphylococcus aureus (MRSA) and MR coagulase negative staphylococci (MR-CoNS), Escherichia coli (EC) and Klebsiella pneumoniae (KPN) containing extended spectrum beta-lactamases (ESBL) or were carbapenem resistant (CR); and), Pseudomonas aeruginosa (PSA) non-susceptible to ceftazidime (CAZ-NS) or to meropenem (MER-NS). […] Isolates were collected from hospitalized patients in the US as a part of the SENTRY surveillance program, 2013-2015.

[2] = system: vancomycin-resistant Enterococcus faecium (VREM); assay: as above; format: cell-based
Method: as §1

[3] = system: EC with an ESBL phenotype; assay: as above; format: cell-based; conditions: Escherichia coli
Method: as §1

[4] = system: methicillin-resistant Staphylococcus aureus (MRSA); assay: as above; format: cell-based
Method: as §1

[5] = Single dose plasma PK in mice after SC administration; conditions: mouse, in vivo
[6] = system: Clostridium spp., Finegoldia magna, and Peptostreptococcus spp.; assay: Reference agar dilution MIC, anaerobes; format: cell-based; conditions: small collection
Method: (§2) FOS was tested against over 1,400 GN and 800 GP clinical isolates collected in US medical centers as part of the SENTRY Antimicrobial Surveillance Program (96% of isolates from 2015) and a selection of 29 GN and 20 GP anaerobes. Isolates were susceptibility (S) tested against FOS and comparators by reference agar dilution (25 μg/mL glucose-6-phosphate supplementation) using existing FDA breakpoints of the oral formulation for comparative assessments.

Veillonella spp. = assay: Reference agar dilution MIC, anaerobes; format: cell-based
Method: as §2

[7] = system: Prevotella and Porphyromonas spp.; assay: Reference agar dilution MIC, anaerobes; format: cell-based
Method: as §2

Propionibacterium spp. = assay: Reference agar dilution MIC, anaerobes; format: cell-based
Method: as §2

EC, KPN and PSA isolates = assay: Thigh infection, dose fractionation and efficacy against all 10 isolates; format: in vivo, mice; conditions: 24 h; commonly in isolates with lower MICs
Method: (§3) 5 EC (4 ESBL), 3 KPN (2 CR), and 2 PSA were used. MICs were determined by agar dilution. […] PK/PD index determination was performed using a dose fractionation (DF) study design. […] The dose-response data was analyzed using the Emax Hill equation.

[8] = system: Carbapenemase-producing Enterobacteriaceae (CPE); assay: FOF MIC by ETEST; format: cell-based; conditions: 37 CPE incl. 11 harboring fos(A)
Method: Isolates (n=37) harboring KPC, NDM, OXA, or VIM carbapenemases, with a majority also producing extended-spectrum β-lactamases, were acquired from the FDA-CDC Antimicrobial Resistant Bank. MICs for agents tested in combination with FOF were determined by broth microdilution; FOF MIC was determined by ETEST® antibiotic gradient diffusion strip prior to conducting synergy assessments between FOF and aztreonam (ATM), ceftazidime (CAZ), ceftazidime/avibactam (CZA), cefepime, ceftolozane/tazobactam (C/T), meropenem, piperacillin/tazobactam, and tobramycin (TOB). Synergistic potential for each combination was determined by crossing a FOF ETEST® strip with each of the aforementioned antibiotic strips at a 90° angle at their respective MICs with subsequent calculation of the fractional inhibitory concentration (FIC). […] Only organisms that were non-susceptible to the second drug were assessed for synergy.

[9] = system: Carbapenem-resistant Enterobacteriaceae (CRE) clinical isolates; assay: Agar dilution susceptibility, CRE clinical isolates; format: cell-based
[10] = Phase I single dose pharmacokinetics in healthy adult subjects; format: in vivo, human; conditions: for half-life / CL renal / Vd / AUC(0-inf) / Cmax / Tmax: plasma
Method: (§4) Materials/methods: Phase I, open-label study evaluating IV (ZTI-01) and PO (Monurol®) FOS in healthy adult subjects. […] Blood and urine samples were collected serially before and through 48 hours post-dose and analyzed via LC/MS-MS. Noncompartmental analyses were performed via WinNonlin. Safety was monitored throughout the course of the study.

[11] = system: Meropenem-NS PSA (MDR PSA isolates); assay: FOF MIC by ETEST; format: cell-based; conditions: Pseudomonas aeruginosa
Method: Meropenem-NS PSA obtained from US hospitals were studied. MICs of all antibiotics except FOF were previously determined by broth microdilution; FOF MIC was determined by ETEST® antibiotic gradient diffusion strip prior to conducting synergy assessments between FOF and aztreonam (ATM), cefepime (FEP), ceftazidime (CAZ), meropenem (MEM), piperacillin/tazobactam (TZP), and tobramycin (TOB). […] Of note, Liofilchem® MIC Test Strip was used for TZP due to commercial availability. Only organisms that were NS to the 2nd drug were assessed for synergy.

[12] = system: 5 EC (4 ESBL), 3 KPN (2 CR), and 2 PSA; assay: MIC by agar dilution, isolates of the thigh infection study; format: cell-based; conditions: 10 isolates
Method: as §3

[13] = Phase I safety and tolerability in healthy adult subjects; format: in vivo, human
Method: as §4

[14] = human, in vivo, 3 g PO (Monurol), mean ± SD
[15] = human, 1 g IV (ZTI-01), mean ± SD
[16] = human, 3 g PO (Monurol), mean ± SD
[17] = human, 8 g IV (ZTI-01), mean ± SD

Structure (SMILES): C[C@@H]1O[C@@H]1P(=O)(O)O [FOS, fosfomycin]
- MIC ([1]; Staphylococcus capitis): 128 µg/mL (≈ 927 µM)
- MIC ([1]; Staphylococcus hominis): > 256 µg/mL
- No. of isolates with FOS MIC≤64 μg/mL ([1]; of 153 MR-CoNS): 72
- MIC90 ([2]; Enterococcus faecium): 128 µg/mL (≈ 927 µM)
- MIC50 ([2]; Enterococcus faecium, 81 VREM): 64 µg/mL (≈ 464 µM)
- No. of isolates with an MIC 64 μg/mL ([2]; of 81 VREM): 63
- MIC [3]: > 256 µg/mL
- MIC50 ([3]; 49 EC): 0.5 µg/mL (≈ 3.62 µM)
- MIC90 ([3]; 49 EC): 4 µg/mL (≈ 29 µM)
- MIC ([3]; remaining isolates, read-out: MIC values): ≤ 32 µg/mL
- MIC50 ([4]; 101 MRSA): 4 µg/mL (≈ 29 µM)
- MIC90 ([4]; 101 MRSA): 8 µg/mL (≈ 57.9 µM)
- MIC ([4]; all 101 MRSA): ≤ 64 µg/mL
- half-life [5]: 0.51 to 1.1 h
- MIC range [6]: 0.5 to 32 µg/mL
- MIC range (Veillonella spp.): ≤0.03 to 0.06 µg/mL
- MIC [7]: > 256 µg/mL
- MIC (Propionibacterium spp.): > 256 µg/mL
- Maximal cidal activity (EC, KPN and PSA isolates): 2-3 log kill
- MIC50 [8]: > 1020 µg/mL
- % of isolates susceptible to FOS [9]: 94%
- MIC90 [9]: 512 µg/mL (≈ 3710 µM)
- MIC50 ([9]; 50 isolates): 2 µg/mL (≈ 14.5 µM)
- MIC range ([9]; C-A R isolates): 1 to 64 µg/mL
- MIC ([9]; C-A R isolates, read-out: Median MIC): 8 µg/mL (≈ 57.9 µM)
- MIC ([9]; FOS R isolate with fosA2 and SNP in glpT, read-out: MIC): 256 µg/mL (≈ 1850 µM)
- MIC ([9]; FOS-R isolate harboring fosA3, read-out: MIC): > 1020 µg/mL
- MIC ([9]; third FOS-R isolate (OXA-181+, CTXM-15+Kp), read-out: MIC): 128 µg/mL (≈ 927 µM)
- fraction of the dose excreted in urine after 48 hours ([10]; 1 g IV): 74%
- CLT ([10]; 1 g IV (ZTI-01), mean ± SD): 8.7 ± 1.7 L/h
- fraction of the dose excreted in urine after 48 hours ([10]; 3 g PO): 37%
- CLT/F ([10]; 3 g PO (Monurol), mean ± SD): 17.0 ± 4.7 L/h
- fraction of the dose excreted in urine after 48 hours ([10]; 8 g IV): 80%
- CLT ([10]; 8 g IV (ZTI-01), mean ± SD): 7.8 ± 1.4 L/h
- dose dependence of plasma PK ([10]; between the 1 g and 8 g IV doses): approximately linear and proportional
- half-life ([10]; human, in vivo, 1 g IV (ZTI-01), mean ± SD): 2.4 ± 0.4 h
- Vd/F [10, 14]: 204 ± 70.7 L
- half-life [10, 14]: 9.04 ± 4.5 h
- half-life ([10]; human, in vivo, 8 g IV (ZTI-01), mean ± SD): 2.8 ± 0.6 h
- CL renal [10, 15]: 110 mL/min
- Vd [10, 15]: 29.7 ± 5.7 L
- CL renal [10, 16]: 108 mL/min
- CL renal [10, 17]: 105 mL/min
- Vd [10, 17]: 31.5 ± 10.4 L
- AUC(0-inf) [10, 15]: 120 ± 28.5 µg·h/mL
- Cmax [10, 15]: 44300 ± 7600 ng/mL
- Tmax [10, 15]: 1.1 ± 0.05 h
- AUC(0-inf) [10, 16]: 191 ± 57.6 µg·h/mL
- Cmax [10, 16]: 26800 ± 6400 ng/mL
- Tmax [10, 16]: 2.25 ± 0.4 h
- AUC(0-inf) [10, 17]: 1060 ± 192 µg·h/mL
- Cmax [10, 17]: 370000 ± 61900 ng/mL
- Tmax [10, 17]: 1.08 ± 0.01 h
- MIC90 [11]: > 1020 µg/mL
- MIC50 ([11]; 87 isolates, ETEST): 64 µg/mL
- MIC range [12]: 1 to 16 µg/mL
- share of TEAE that occurred after the 8 g IV dose ([13]; 8 g IV): 67.9%
- hypocalcemia (most common TEAE) ([13]; after 1 g IV): 17.9%
- bradycardia (most common TEAE) ([13]; after 8 g IV): 28.6%
- % of subjects reporting a treatment-emergent adverse event (TEAE) ([13]; all regimens): 80%
- severity of TEAEs ([13]; all regimens, resolved without sequelae): mild-moderate
- headache (most common FOS-related TEAE) ([13]; human, in vivo): 10.7%
